This is an account of results in patent publication US20190091339A1, “ABIRATERONE-CYCLIC OLIGOMER PHARMACEUTICAL FORMULATIONS AND METHODS OF FORMATION AND ADMINISTRATION THEREOF” (DISPERSOL TECHNOLOGIES, LLC, priority 2017, published 2019).

Values joined by “and” are separate entries in the source; they are usually repeats but may differ in a detail not shown here. Equal entries are not always repeated.

Experiment [1] deals with 22RV1 human prostate tumor xenograft. Nature of the experiment: Anti-tumor study in 22RV1 xenograft mice. Format: in vivo, CB.17 SCID mice. The note with it: for Tumor Volume Day 26, individual mice: QD to End, Oral Gavage; for % T/C (mean tumor volume) / % T/C (median tumor volume) / Mean Tumor Volume / Median Tumor Volume: Day 26. How it is done: The objective of the xenograft mice study was to determine the anti-tumor activity of a composition made per Example 2.4 as a single agent versus abiraterone acetate in the 22RV1 human prostate tumor xenograft model. The study was conducted in CB.17 SCID mice injected with 22RV1 cells (5×10^6 cells/mouse) in the subcutaneous right flank. Tumors were grown to a mean tumor size between 100 and 150 mm^3 prior to study enrollment. The mice were dosed with the test article and reference once-daily by oral gavage per Table 12. Tumor volume was measured throughout the study. The study was terminated on day 26 when mean tumor volume of two experimental groups reached ≥1500 mm^3.

The subject of experiment [2] is prostate specific antigen (PSA). The note with it: 1,000 mg abiraterone acetate daily, well controlled trials; cited from earlier work.
Setting [3] is: Abiraterone Acetate 22.4 mg/kg QD PO.
Where [4] appears, read: Abiraterone Acetate 100 mg/kg QD PO.

Take `CC(=O)O[C@H]1CC[C@@]2(C)C(=CC[C@@H]3[C@@H]2CC[C@]2(C)C(c4cccnc4)=CC[C@@H]32)C1` [Abiraterone Acetate, (3β)-17(3-pyridinyl)androsta-5,16-dien-3-ol acetate]: in experiment [1] (Abiraterone Acetate Dose #1, 22.4 mg/kg), the “Tumor Volume Day 26, individual mice” value was 1,062 mm^3 and 1,389 mm^3 and 808 mm^3 and 1,555 mm^3 and 2,107 mm^3 and 726 mm^3 and 1,606 mm^3 and 1,119 mm^3 and 1,127 mm^3 and 1,143 mm^3. Moreover, in experiment [1] (Abiraterone Acetate Dose #2, 100 mg/kg), the “Tumor Volume Day 26, individual mice” value is 1,609 mm^3 and 1,639 mm^3 and 1,084 mm^3 and 1,490 mm^3 and 1,429 mm^3 and 1,453 mm^3 and 1,152 mm^3 and 1,568 mm^3 and 1,287 mm^3 and 2,787 mm^3. Moreover, in experiment [1] (setting [3]), the “% T/C (mean tumor volume)” value was 84.1%, the “% T/C (median tumor volume)” value is recorded as 72.8%, the “Mean Tumor Volume” value was determined as 1264.2 mm^3 and the “Median Tumor Volume” value came to 1135.0 mm^3. Also, in experiment [1] (setting [4]), the “% T/C (mean tumor volume)” value was found to be 103.1%, the “% T/C (median tumor volume)” value worked out at 94.4%, the “Mean Tumor Volume” value turned out to be 1549.4 mm^3 and the “Median Tumor Volume” value was 1471.5 mm^3. For the same molecule, the “tumor growth relative to vehicle control” value in experiment [1] (once-daily oral gavage, low and high doses, 22RV1 xenograft mice) is recorded as “did not result in statistically different tumor growth”. Besides, in experiment [2], the “treated patients achieving target PSA reductions” value is “up to 60%”.
